System: HCV 1b RLuc cells (dicistronic genotype 1b Con1 replicon)
Experiment: Renilla luciferase (RLuc)-based HCV replicon reporter assay
Format: cell-based, HCV genotype 1b
Details: Hepatitis C virus, 72 h, HCV 1b RLuc replicon, 72 hours; read-out: Activity (antiviral potency [EC50])
Method: Antiviral potency (EC50) was determined using a Renilla luciferase (RLuc)-based HCV replicon reporter assay. To perform the assay, HCV 1b RLuc cells (harboring a dicistronic genotype 1b Con1 replicon that encodes a RLuc reporter), or HCV 1a RLuc cells (harboring a dicistronic genotype 1a H77 replicon that encodes a RLuc reporter), were dispensed into 384-well plates. Compounds were re-suspended in DMSO at a concentration of 10 mM and serially diluted in DMSO using an automated pipeting instrument. Serially diluted compounds were mixed with cell culture media and added to the seeded cells. DMSO was used as a negative (solvent) control, and the protease inhibitor ITMN-191 was included at a concentration >100×EC50 as a positive control. 72 hours later, cells were lysed and Renilla luciferase activity quantified as recommended by the manufacturer (Promega-Madison, Wis.). Non-linear regression was performed to calculate EC50 values.
Biological data (antiviral potency [EC50] was determined using a Renilla luciferase (RLuc)-based HCV replicon reporter assay—HCV 1b RLuc) for representative compounds of the invention is provided in the following table. These compounds can be prepared using procedures similar to those described above.

Q: `COC(=O)N[C@H](C(=O)N1CC2(CC2)C[C@H]1c1ncc(-c2ccc(-c3ccc4cc(-c5cnc([C@@H]6[C@H]7CC[C@H](C7)N6C(=O)[C@@H](NC(=O)OC)C(C)C)[nH]5)ccc4c3)cc2)[nH]1)C(C)C` was tested. Which EC50 did it give?
A: 7.6 pM

Q: How did the EC50 turn out when `COC(=O)NC(C(=O)N1CCC[C@H]1c1ncc(-c2ccc3c(c2)COc2c-3ccc3cc(-c4cnc([C@@H]5CCCN5C(=O)C(NC(=O)OC)c5ccccc5)[nH]4)ccc23)[nH]1)c1ccccc1` (some centres unmarked) was run?
A: 27.5 pM

Q: `COC(=O)N[C@H](C(=O)N1CCC[C@H]1c1ncc(-c2ccc3cc(-c4ccc(-c5cnc([C@@H]6CCCN6C(=O)[C@H](NC(=O)OC)c6ccccc6OC)[nH]5)cc4)ccc3c2)[nH]1)C(C)C` was tested. Which EC50 did it give?
A: 7.3 pM

Q: For `COC(=O)N[C@H](C(=O)N1CCC[C@H]1c1ncc(-c2ccc3cc4cc(-c5cnc([C@@H]6CCCN6C(=O)[C@@H](NC(=O)OC)C(C)C)[nH]5)ccc4cc3c2)[nH]1)C(C)C`, which EC50 is on record?
A: 7 pM

Q: Which EC50 does the source give for `COC(=O)N[C@H](C(=O)N1CCC[C@H]1c1ncc(-c2ccc3cc(-c4ccc(-c5ccc6nc([C@@H]7[C@H]8CC[C@H](C8)N7C(=O)[C@@H](NC(=O)OC)C(C)C)[nH]c6c5)cc4)ccc3c2)[nH]1)C(C)C` here?
A: 77 pM

Q: With `COC(=O)N[C@H](C(=O)N1CCC[C@H]1c1ncc(-c2ccc3cc(-c4ccc(-c5cnc([C@@H]6CCCN6C(=O)[C@H](OC(=O)N(C)C)c6ccccc6)[nH]5)cc4)ccc3c2)[nH]1)C(C)C` as the molecule, how does the EC50 read?
A: 8.3 pM

Q: For `COC(=O)N[C@@H](CCC(F)(F)F)C(=O)N1CCC[C@H]1c1ncc(-c2ccc(-c3ccc(-c4cnc([C@@H]5CCCN5C(=O)[C@H](CCC(F)(F)F)NC(=O)OC)[nH]4)cc3)cc2)[nH]1`, which EC50 is on record?
A: 63.5 pM

Q: `CC[C@H](NC(=O)OC)C(=O)N1CC2(CC2)C[C@H]1c1ncc(-c2ccc3cc(-c4ccc(-c5cnc([C@@H]6[C@H]7CC[C@H](C7)N6C(=O)[C@@H](NC(=O)OC)C(C)C)[nH]5)cc4)ccc3c2)[nH]1` was tested. Which EC50 did it give?
A: 18.1 pM

Q: How did the EC50 turn out when `COC(=O)N[C@@H](C)C(=O)N1CCC[C@H]1c1ncc(-c2ccc3cc(-c4ccc5cc(-c6cnc([C@@H]7[C@H]8CC[C@H](C8)N7C(=O)[C@@H](NC(=O)OC)C(C)C)[nH]6)ccc5c4)ccc3c2)[nH]1` was run?
A: 1150 pM

Q: For `COC(=O)N[C@H](C(=O)N1CCC[C@H]1c1ncc(-c2ccc3c(c2)oc2cc(-c4cnc([C@@H]5CCCN5C(=O)[C@@H](NC(=O)OC)C(C)C)[nH]4)ccc23)[nH]1)C(C)C`, which EC50 is on record?
A: 5.2 pM

Q: With `COC(=O)N[C@H](C(=O)N1CCC[C@H]1c1nc2ccc(C#Cc3ccc4nc([C@@H]5CCCN5C(=O)[C@@H](NC(=O)OC)C(C)C)[nH]c4c3)cc2[nH]1)C(C)C` as the molecule, how does the EC50 read?
A: 139 pM

Q: `COC(=O)N[C@H](C(=O)N1CCC[C@H]1c1ncc(-c2ccc(-c3ccc(-c4cnc([C@H](C)N5CCC[C@@H](NC(=O)OC)C5=O)[nH]4)cc3)cc2)[nH]1)C(C)C` was tested. Which EC50 did it give?
A: 661 pM

Q: For `COC(=O)N[C@H](C(=O)N1CCC[C@H]1c1ncc(-c2ccc(C#Cc3ccc(-c4cnc([C@@H]5CN(C(=O)OC(C)(C)C)CCN5C(=O)[C@@H](NC(=O)OC)C(C)C)[nH]4)cc3)cc2)[nH]1)C(C)C`, which EC50 is on record?
A: 4730 pM

Q: Which EC50 does the source give for `COC(=O)NC(C(=O)N1CCC[C@H]1c1ncc(-c2ccc(C#Cc3ccc(-c4cnc([C@@H]5CCCN5C(=O)[C@@H](NC(=O)OC)C(C)C)[nH]4)cc3)cc2)[nH]1)C(F)(F)F` (some centres unmarked) here?
A: > 44400 pM

Q: Which EC50 does the source give for `COC(=O)N[C@H](C(=O)N1CCC[C@H]1c1ncc(-c2ccc(C#Cc3ccc(-c4cnc([C@@H]5CN(C(C)=O)CN5C(=O)[C@@H](NC(=O)OC)C(C)C)[nH]4)cc3)cc2)[nH]1)C(C)C` here?
A: 40.3 pM

Q: With `COC(=O)N[C@H](C(=O)N1CCC[C@H]1c1ncc(-c2ccc(-c3ccc4cc(-c5cnc([C@@H]6CCCN6C(=O)[C@H](NC(=O)OC)c6ccccc6)[nH]5)ccc4c3)cc2)[nH]1)C(C)C` as the molecule, how does the EC50 read?
A: 8.3 pM

Q: Which EC50 does the source give for `CC[C@H](NC(=O)OC)C(=O)N1C[C@@H](C#N)C[C@H]1c1ncc(-c2ccc(-c3ccc4cc(-c5cnc([C@@H]6CC7(CC7)CN6C(=O)[C@@H](NC(=O)OC)C(C)C)[nH]5)ccc4c3)cc2)[nH]1` here?
A: 17.6 pM

Q: With `COC(=O)N[C@@H](C)C(=O)N1CCC[C@H]1c1ncc(-c2ccc3cc(-c4ccc5cc(-c6cnc([C@@H]7[C@H]8CC[C@H](C8)N7C(=O)[C@H](C)NC(=O)OC)[nH]6)ccc5c4)ccc3c2)[nH]1` as the molecule, how does the EC50 read?
A: 2610 pM

Q: How did the EC50 turn out when `COC(=O)N[C@@H](C)C(=O)N1CCN(C(=O)OC)C[C@H]1c1ncc(-c2ccc(-c3ccc(-c4cnc([C@@H]5CCCN5C(=O)[C@@H](NC(=O)OC)C(C)C)[nH]4)cc3)cc2)[nH]1` was run?
A: 224 pM

Q: With `COC(=O)N[C@@H](C)C(=O)N1CCC[C@H]1c1ncc(-c2ccc3c(c2)CCc2cc(-c4cnc([C@@H]5[C@H]6CC[C@H](C6)N5C(=O)[C@H](C)NC(=O)OC)[nH]4)ccc2-3)[nH]1` as the molecule, how does the EC50 read?
A: 36.8 pM

Q: `COC(=O)N[C@H](C(=O)N1CCC[C@H]1c1ncc(-c2ccc(-c3ccc(-c4cnc([C@@H]5CN(CC(F)(F)F)CN5C(=O)[C@@H](NC(=O)OC)C(C)C)[nH]4)cc3)cc2)[nH]1)C(C)C` was tested. Which EC50 did it give?
A: 7.4 pM

Q: For `COC(=O)N[C@H](C(=O)N1CCC[C@H]1c1ncc(-c2ccc(-c3ccc(-c4cnc([C@@H]5COCCN5C(=O)[C@@H](NC(=O)OC)C(C)C)[nH]4)cc3)cc2)[nH]1)C(C)C`, which EC50 is on record?
A: 21.4 pM

Q: For `COC(=O)N[C@H](C(=O)N1CCC[C@H]1c1ncc(-c2ccc(-c3cnc(-c4ccc(-c5cnc([C@@H]6CCCN6C(=O)[C@@H](NC(=O)OC)C(C)C)[nH]5)cc4)s3)cc2)[nH]1)C(C)C`, which EC50 is on record?
A: 38.5 pM

Q: For `COC(=O)N[C@H](C(=O)N1CCC[C@H]1c1ncc(-c2ccc(-c3ccc(-c4cnc([C@@H]5CN(C(=O)c6ccccc6)CN5C(=O)[C@@H](NC(=O)OC)C(C)C)[nH]4)cc3)cc2)[nH]1)C(C)C`, which EC50 is on record?
A: 13.6 pM

Q: With `COC(=O)N[C@H](C(=O)N1CCC[C@H]1c1ncc(-c2ccc3c(c2)C(=O)c2cc(-c4cnc([C@@H]5CCCN5C(=O)[C@@H](NC(=O)OC)C(C)C)[nH]4)ccc2-3)[nH]1)C(C)C` as the molecule, how does the EC50 read?
A: 18.4 pM

Q: For `COC(=O)N[C@H](C(=O)N1CCC[C@H]1c1ncc(-c2ccc3c(c2)COc2c-3ccc3cc(-c4cnc([C@@H]5CCCN5C(=O)[C@@H](NC(=O)OC)C5CCOCC5)[nH]4)ccc23)[nH]1)C1CCOCC1`, which EC50 is on record?
A: 41.7 pM

Q: How did the EC50 turn out when `COC(=O)N[C@H](C(=O)N1CCC[C@H]1c1ncc(C#Cc2ccc(-c3ccc(-c4cnc([C@@H]5CCCN5C(=O)[C@@H](NC(=O)OC)C(C)C)[nH]4)cc3)cc2)[nH]1)C(C)C` was run?
A: 11.5 pM

Q: How did the EC50 turn out when `COC(=O)N[C@H](C(=O)N1CCC[C@H]1c1ncc(-c2ccc3c(c2)CN(C)C(=O)c2cc(-c4cnc([C@@H]5CCCN5C(=O)[C@@H](NC(=O)OC)C(C)C)[nH]4)ccc2-3)[nH]1)C(C)C` was run?
A: 2140 pM

Q: `COC(=O)N[C@H](C(=O)N1CCC[C@H]1c1ncc(-c2ccc3cc(-c4ccc(-c5cnc([C@@H]6C[C@@H](C#N)CN6C(=O)[C@@H](NC(=O)OC)C(C)C)[nH]5)cc4)ccc3c2)[nH]1)C(C)C` was tested. Which EC50 did it give?
A: 4.8 pM

Q: `COC(=O)N[C@H](C(=O)N1CCC[C@H]1c1ncc(-c2ccc3c(c2)COCc2cc(-c4cnc([C@@H]5[C@H]6CC[C@H](C6)N5C(=O)[C@@H](NC(=O)OC)C(C)C)[nH]4)ccc2-3)[nH]1)C(C)C` was tested. Which EC50 did it give?
A: 22.1 pM

Q: `COC(=O)N[C@H](C(=O)N1CCC[C@H]1c1ncc(-c2ccc3cc(-c4ccc(-c5cnc([C@@H]6C[C@H](CNC(C)=O)CN6C(=O)[C@@H](NC(=O)OC)C(C)C)[nH]5)cc4)ccc3c2)[nH]1)C(C)C` was tested. Which EC50 did it give?
A: 138 pM

Q: For `COC(=O)N[C@H](C(=O)N1CCC[C@H]1c1ncc(C#Cc2cccc3c(C#Cc4cnc([C@@H]5CCCN5C(=O)[C@@H](NC(=O)OC)C(C)C)[nH]4)cccc23)[nH]1)C(C)C`, which EC50 is on record?
A: 14.2 pM

Q: Which EC50 does the source give for `COC(=O)N[C@H](C(=O)N1CCC[C@H]1c1ncc(-c2ccc(-c3ccc(-c4cnc([C@@H]5C[C@H](COC(F)F)CN5C(=O)[C@@H](NC(=O)OC)C(C)C)[nH]4)cc3)cc2)[nH]1)C(C)C` here?
A: 15 pM

Q: How did the EC50 turn out when `CON[C@H](C(=O)N1CCC[C@H]1c1ncc(-c2ccc(-c3ccc4cc(-c5cnc([C@@H]6CCCN6C(=O)[C@@H](NC(=O)OC)C(C)C)[nH]5)ccc4c3)cc2)[nH]1)C(C)C` was run?
A: 525 pM

Q: With `COC(=O)N[C@H](C(=O)N1CCC[C@H]1c1ncc(-c2cc3cc4sc(-c5cnc([C@@H]6CCCN6C(=O)[C@@H](NC(=O)OC)C(C)C)[nH]5)cc4cc3s2)[nH]1)C(C)C` as the molecule, how does the EC50 read?
A: 7.7 pM

Q: How did the EC50 turn out when `COC(=O)NC(C(=O)N1CCC[C@H]1c1ncc(-c2ccc(-c3ccc4cc(-c5cnc([C@@H]6CCCN6C(=O)[C@@H](NC(=O)OC)C(C)C)[nH]5)ccc4c3)cc2)[nH]1)C1CCS(=O)(=O)CC1` (some centres unmarked) was run?
A: 135 pM

Q: Which EC50 does the source give for `COC(=O)N[C@H](C(=O)N1CC2(CC2)C[C@H]1c1ncc(-c2ccc(-c3ccc4cc(-c5cnc([C@@H]6[C@H]7CC[C@H](C7)N6C(=O)[C@@H](NC(=O)OC)C6CC6)[nH]5)ccc4c3)cc2)[nH]1)C(C)C` here?
A: 53.4 pM

Q: `COC(=O)N[C@@H](CC#N)C(=O)N1[C@@H]2CC[C@@H](C2)[C@H]1c1nc2ccc(-c3ccc4c(c3)C(F)(F)c3cc(-c5cnc([C@@H]6CC7(CC7)CN6C(=O)[C@@H](NC(=O)OC)C(C)C)[nH]5)ccc3-4)cc2[nH]1` was tested. Which EC50 did it give?
A: 4 pM

Q: With `COC(=O)N[C@H](C(=O)N1CC2(CC2)C[C@H]1c1ncc(-c2ccc3cc(-c4ccc(-c5cnc([C@@H]6[C@H]7CC[C@H](C7)N6C(=O)[C@@H](NC(=O)OC)C(C)(C)C)[nH]5)cc4)ccc3c2)[nH]1)C(C)C` as the molecule, how does the EC50 read?
A: 9 pM

Q: With `COC(=O)N[C@H](C(=O)N1CCC[C@H]1c1ncc(-c2ccc3cc(-c4ccc(-c5cnc([C@@H]6C[C@H](CN(C)C)CN6C(=O)[C@@H](NC(=O)OC)C(C)C)[nH]5)cc4)ccc3c2)[nH]1)C(C)C` as the molecule, how does the EC50 read?
A: 125 pM

Same assay, conditions: Hepatitis C virus, 72 h, read-out: Activity (antiviral potency [EC50])

Q: With `COC(=O)N[C@H](C(=O)N1CCC[C@H]1C(=O)Nc1ccc(NC(=O)c2ccc(NC(=O)[C@@H]3CCCN3C(=O)[C@@H](NC(=O)OC)C(C)C)cc2)cc1)C(C)C` as the molecule, how does the EC50 read?
A: 37800 pM

From patent US8822430B2 (Gilead Sciences, Inc., priority 2009, dated 2014)
